As a reminder, the melting point is the temperature, or range, at which the solid turns liquid. The compound `CCCCCCc1ccc2c(c1)CCc1c(O)cc(O)cc1O2` registered a melting point of 135.6 to 137.6 °C.

For the compound `C[Si](C)(C)CCc1ccc2c(c1)CCc1c(O)cc(O)cc1O2`, the melting point was 125.2 to 126.9 °C.

Turning to `CSc1ccc2c(c1)CCc1c(O)cc(O)cc1S2` [Example 2, 8-Methylthio-10,11-dihydrodibenzo[b,f]thiepin-1,3-diol], the melting point lay within 161.6 to 163.9 °C.

As to `CCC1(CC)C(=O)c2cc(O)c(O)cc2Sc2ccccc21` [Example 3], the melting point lay in the range of 238 to 244.1 °C.

On to `O=C1Cc2ccc(-c3cccs3)cc2Oc2cc(O)cc(O)c21` [Example 5, 3-(2-Thiophene)-7,9-dihydroxy-10,11-dihydrodibenz[b,f]oxepin-10-one], for which the melting point lay within 227.6 to 228.1 °C.

For the compound `Oc1cc(O)c2c(c1)Oc1cc(-c3ccccc3)ccc1CC2` [Example 7, 7-Phenyl-10,11-dihydrodibenz[b,f]oxepin-1,3-diol], the melting point lay within 179.6 to 180.4 °C.

`O=C1Cc2ccc(I)cc2Sc2cc(O)cc(O)c21` [Example 8, 3-Iodo-7,9-dihydroxy-10,11-dihydrodibenzo[b,f]thiepin-10-one]: the melting point is > 250 °C (dec.).

In the case of `O=C1Cc2ccc(Br)cc2Sc2cc(O)cc(O)c21` [Example 9, 3-Bromo-7,9-dihydroxy-10,11-dihydrodibenzo[b,f]thiepin-10-one], the melting point is > 200 °C (dec.).

`CCC(=O)c1ccc2c(c1)CCc1c(O)cc(O)cc1O2` [Example 10, 8-Propionyl-10,11-dihydrodibenz[b,f]oxepin-1,3-diol]: the melting point was in the range of 159 to 160.3 °C.

On to `O=C1Cc2cc(Br)ccc2Sc2cc(O)cc(O)c21` [Example 13], for which the melting point lay in the range of 236.4 to 237.3 °C.

`COc1cc(O)c2c(c1)Sc1ccc(Br)cc1CC2=O` [Example 14] displayed a melting point of 187.5 °C.

Consider `O=C1Cc2cc(Cl)ccc2Sc2cc(O)cc(O)c21` [Example 15], for which the melting point was in the range of 217.9 to 221.6 °C.

For the compound `CSc1ccc2c(c1)Sc1cc(O)cc(O)c1C(=O)C2` [Example 19], the melting point was 182.3 to 184.4 °C.

Compound `O=C1Cc2ccc(Br)cc2Sc2cc(O)c(O)cc21` [Example 20] gave a melting point of over 250 °C.

On to `O=C1Cc2cc(Br)ccc2Sc2cc(O)c(O)cc21` [Example 22], for which the melting point was 285.7 °C (dec.).

In turn, `CSc1ccc2c(c1)Sc1cc(O)c(O)cc1C(=O)C2` [Example 23] yielded a melting point of 232 to 236.9 °C.

In turn, `ON=C1Cc2ccccc2Oc2cc(O)cc(O)c21` [Example 24] showed a melting point of 208 to 213.7 °C.

In the case of `Oc1cc(O)c2c(c1)Sc1ccc(Cl)cc1CC2` [Example 26], the melting point lay in the range of 181.1 to 184.9 °C.

As to `CSc1ccc2c(c1)C=Cc1c(O)cc(O)cc1S2` [Example 28], the melting point was 182.9 to 184.4 °C.

`N#Cc1ccc2c(c1)CCc1c(O)cc(O)cc1S2` [Example 29] showed a melting point of 237.4 to 238.6 °C.

`CC1(C)C(=O)c2cc(O)c(O)cc2Sc2ccccc21` [Example 31] returned a melting point of 194.2 to 196.1 °C.

`CCC1C(=O)c2c(O)cc(O)cc2Sc2ccc(SC)cc21` (stereo not shown) [Example 35] displayed a melting point of 167.4 to 168.2 °C.

Consider `CCC1C(=O)c2cc(O)c(O)cc2Sc2ccc(SC)cc21` (stereo not shown) [Example 36], for which the melting point lay within 199.6 to 200.5 °C.

As to `CCC1C(=O)c2c(O)cc(O)cc2Sc2ccccc21` (stereo not shown) [Example 38], the melting point lay within 175 to 177.5 °C.

With `CC1C(=O)c2c(O)cc(O)cc2Sc2ccccc21` (stereo not shown) [Example 39], the melting point is 152.1 to 153.4 °C.

`O=C1c2c(O)cc(O)cc2Sc2ccccc2C1Cc1ccccc1` (stereo not shown) [Example 40]: the melting point was 67.5 to 68.3 °C.

In the case of `CC1C(=O)c2ccc(O)cc2Sc2ccccc21` (stereo not shown) [Example 41], the melting point lay within 190 to 191.6 °C.

The compound `CCC1C(=O)c2cc(O)c(O)cc2Sc2ccc(Br)cc21` (stereo not shown) [Example 44] gave a melting point of 235.6 to 237.4 °C.

On to `CCC1C(=O)c2cc(O)c(O)cc2Sc2cc(Br)ccc21` (stereo not shown) [Example 45], for which the melting point fell in the range of 227.2 to 229.9 °C.

In turn, `CCC1C(=O)c2cc(O)c(O)cc2Sc2cc(SC)ccc21` (stereo not shown) [Example 46] registered a melting point of 179.8 to 183 °C.

`CCCc1ccc2c(c1)CC(=O)c1c(O)cc(O)cc1O2` [Example 47] returned a melting point of 121 to 123 °C.

`CCc1ccc2c(c1)CC(=O)c1c(O)cc(O)cc1S2` [Example 48] showed a melting point of 179.1 to 180.1 °C.

In turn, `CCCCc1ccc2c(c1)CC(=O)c1c(O)cc(O)cc1O2` [Example 50] returned a melting point of 105.6 to 106.8 °C.

Regarding `O=C1Cc2ccc(CCc3ccccc3)cc2Oc2cc(O)cc(O)c21` [Example 51], the melting point lay within 125.9 to 127.7 °C.

In turn, `CCCCc1ccc2c(c1)CC(=O)c1c(O)cc(O)cc1S2` [Example 53] gave a melting point of 106.9 to 108.1 °C.

`O=C1Cc2cc(-c3ccccc3)ccc2Oc2cc(O)cc(O)c21` [Example 54]: the melting point is 170.3 to 172 °C.

As to `O=C1Cc2cc(-c3cccnc3)ccc2Oc2cc(O)cc(O)c21` [Example 55], the melting point lay in the range of 293.9 to 300.1 °C.

Regarding `O=C1Cc2cc(-c3cccc([N+](=O)[O-])c3)ccc2Oc2cc(O)cc(O)c21` [Example 56], the melting point fell in the range of 244.3 to 250.7 °C.

`O=C1Cc2cc(-c3ccco3)ccc2Oc2cc(O)cc(O)c21` [Example 57] showed a melting point of 171 to 172.7 °C.

As to `O=C1Cc2cc(-c3cccs3)ccc2Oc2cc(O)cc(O)c21` [Example 58], the melting point lay in the range of 199.9 to 201 °C.

On to `Nc1cccc(-c2ccc3c(c2)CC(=O)c2c(O)cc(O)cc2O3)c1` [Example 59], for which the melting point is > 300 °C (dec.).

Compound `Cc1ccc(-c2ccc3c(c2)CC(=O)c2c(O)cc(O)cc2O3)cc1` [Example 60] came in with a melting point of 174 to 175 °C.

The compound `O=C1Cc2cc(-c3cccc(Cl)c3)ccc2Oc2cc(O)cc(O)c21` [Example 61] displayed a melting point of 208.9 to 213.6 °C.

Take `Cc1ccccc1-c1ccc2c(c1)CC(=O)c1c(O)cc(O)cc1O2` [Example 62]: the melting point is 91.8 to 94.8 °C.

In the case of `CC(=O)c1ccc(-c2ccc3c(c2)CC(=O)c2c(O)cc(O)cc2O3)cc1` [Example 65], the melting point was 274 to 279 °C (dec.).

In the case of `O=C(Cc1ccc2c(c1)CC(=O)c1c(O)cc(O)cc1O2)C1=CCCCC1` [Example 66], the melting point fell in the range of 173.8 to 175.8 °C.

Compound `CC(=O)c1cc(-c2ccc3c(c2)CC(=O)c2c(O)cc(O)cc2O3)ccc1C` [Example 67] returned a melting point of 228.4 to 230.8 °C.

Consider `O=C(Cc1ccc2c(c1)Oc1cc(O)cc(O)c1C(=O)C2)C1=CCCCC1` [Example 68], for which the melting point is 195.5 to 195.8 °C.

The compound `O=C1Cc2ccc(-c3cccc(Cl)c3)cc2Oc2cc(O)cc(O)c21` [Example 69] yielded a melting point of 199.9 to 201.4 °C.

On to `O=C1Cc2ccc(-c3ccco3)cc2Oc2cc(O)cc(O)c21` [Example 70], for which the melting point lay in the range of 249.6 to 250.8 °C.

As for `Cc1ccc(-c2ccc3c(c2)Oc2cc(O)cc(O)c2C(=O)C3)cc1` [Example 71], the melting point is 208.8 to 210.2 °C.

As to `Cc1ccccc1-c1ccc2c(c1)Oc1cc(O)cc(O)c1C(=O)C2` [Example 72], the melting point fell in the range of 163.5 to 165.8 °C.

The values are drawn from US6700013B2, “Tricyclic fused heterocycle compounds, process for preparing the same and use thereof” (Nippon Suisan Kaisha, Ltd., priority 1999, dated 2004).
